Measured values reported in US12606529B2, “Sulfur and amide tropolone inhibitors of nucleotidyl transferases and uses therefor” (Saint Louis University, priority 2019, dated 2026).
Values after ≈ are worked out from the molar mass of the structure shown.

Assays:
[1] = system: C. neoformans var. grubii, KN99; assay: C. neoformans growth inhibition assay (limiting dilution); type: cell-based, Cryptococcus neoformans; conditions: Cryptococcus neoformans, 48 h, Table 2 amides; 48 h, 35° C., tested 0.19 to 50 μM; read-out: C. neoformans MIC80
Method: Cell types used for C. neoformans studies. All inhibition assays were performed with C. neoformans var. grubii, KN99 (serotype A, MAT). Two clinical strains of C. neoformans var. grubii, serotype A, were provided by Tamara Doering and Andre Spec. […] Cells were diluted to OD650 0.001 in YNB-02 02 (0.67% yeast nitrogen base, 0.2% dextrose, pH 7.0 with 50 mM MOPs)+1% DMSO prior to addition to the plates for the inhibition assays.
C. neoformans growth inhibition assays. Compounds were tested in a limiting dilution assay with a starting optical density (at 650 nm) of 0.001 in YNB-02 plus 1% DMSO. Cells plus compound were incubated in 96-well clear round bottom plates covered with a Breath-easy® membrane without shaking for 48 hours at 35° C. Before measuring cell density, plates were shaken on a microtiter plate shaker at 900 rpm for 3 minutes to resuspend cells and optical density was measured at 650 nm. […] Each assay was done in triplicate and all values are the average of two or more independent assays. The data are presented as the average cell density as a percent of DMSO-only treated cells. MICs are reported as the minimal concentration needed to inhibit 80% of C. neoformans growth relative to vehicle-treated controls.

human RNaseH1 = target: T1, human RNaseH1 (Homo sapiens, UniProt O60930); assay: Biochemical inhibition of human RNaseH1 activity; conditions: Table 2 amides; read-out: HuRH1 IC50
T1 sequence (O60930 1-286): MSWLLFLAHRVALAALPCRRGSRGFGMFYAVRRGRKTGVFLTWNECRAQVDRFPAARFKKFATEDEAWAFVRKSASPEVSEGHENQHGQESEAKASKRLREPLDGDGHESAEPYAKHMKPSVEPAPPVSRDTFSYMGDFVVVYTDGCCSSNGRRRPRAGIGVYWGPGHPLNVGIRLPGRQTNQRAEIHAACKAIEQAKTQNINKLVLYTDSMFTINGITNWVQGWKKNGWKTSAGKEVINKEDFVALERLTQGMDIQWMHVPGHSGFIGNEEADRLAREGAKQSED
Method: Biochemical inhibition of human RNaseH1 activity. Quantitative inhibition of the human RNaseH1 in the biochemical assays was assessed using a molecular beacon assay as described previously (Edwards et al., 2017). Recombinant human RNaseH 1 (0.3 μg) was incubated with 100 nM RNA:DNA substrate, 50 mM HEPES pH 8.0, 100 mM NaCl, 2 mM Tris(2-carboxyethyl)phosphine hydrochloride (TCEP), 0.05% Tween20, 5 units of RNaseOut, test compounds (0 to 500 μM), and 5% DMSO in a 100 μL reaction volume. The substrate was formed by annealing a complementary RNA oligonucleotide to a hairpin DNA oligonucleotide to hold the hairpin DNA oligonucleotide in an open conformation. The DNA oligonucleotide has a 5′ fluorescein reporter and a 3′ black hole quencher. When the RNA is degraded from the substrate the DNA oligonucleotide closes to form a hairpin structure, decreasing in signal intensity. Reactions were initiated with 5 mM MgCl2 and fluorescence was read using a Synergy HTS multi-mode plate reader at 37° C. Alternatively, the HBV RNaseH version used was MBP-HRHgtCΔ5, a genotype C isolate which lacks the C-terminal 35 amino acids of the HBV RNaseH domain that are predicted to be unstructured. Quantitative inhibition of the human RNaseH1 in biochemical assays was assessed using a FRET-based RNaseH assay under conditions previously reported for an RNaseH molecular beacon assay (Edwards et al., 2017). […] Cleavage of the RNA strand released the fluorescein from quenching, increasing fluorescence. Reactions were monitored for 90 min at 37° C. in a plate reader and initial reaction rates were calculated. Reactions contained escalating concentrations of the compounds.

in vitro = conditions: human, HepDES19 cells
Method: Cells used for toxicity and HBV studies. […] Cells were maintained in Dulbecco's modified Eagle's medium (DMEM)/F12 media supplemented with 10% fetal bovine serum (FBS) and 1% penicillin/streptomycin (P/S) with 1 μg/mL tetracycline. Synchronized expression of HBV pgRNA was induced by removing tetracycline from the culture medium.
Cytotoxicity Assays. Qualitative assessments of cytotoxicity were done visually by inspecting the cells in the primary screening assays. […] The next day the compounds were added at 0.78 to 100 μM in a final concentration of 1% (v/v) DMSO, and the cells were incubated for 24 hours under conditions identical to those employed for the viral replication inhibition assays. Mitochondrial toxicity was measured by incubating the cells with 0.25 mg/mL thiazolyl blue tetrazolium bromide (MTT, SigmaAldrich Chemical Co.), the cultures were incubated for 60 mM, metabolites were solubilized in acidic isopropanol, and absorbance was read at 570 nm. CC50 values were calculated by non-linear curve fitting using GraphPad Prism using the three-parameter variable-response log(inhibitor)-versus-response algorithm with the bottom value set to zero.

HSV-1 = assay: Anti-HSV-1 replication assay (Vero cells, plaque titer); type: cell-based, herpes simplex virus 1; conditions: Human alphaherpesvirus 1, Vero, Table 2 amides, values separated by / are repeats; for log reduction at 1 µM: compound at 1 μM, read-out: HSV-1 suppression 1 μM; for log reduction at 5 µM: compound at 5 μM, read-out: HSV-1 suppression 5 μM

SMILES	MIC80 [1] [µM]	IC50 (human RNaseH1) [µM]	CC50 at 24 h (in vitro; CC50 (μM), Table 2 amides, MTT) [µM]	CC50 at 24 h (in vitro; CC50) [µM]	log reduction at 1 µM (HSV-1)	log reduction at 5 µM (HSV-1)
Cc1cc(O)c(=O)c(O)cc1C(=O)NCC1CCCCN1C(=O)OC(C)(C)C (centres unmarked) [compound 810]	4.5 (≈ 1.77 µg/mL)	41.5 ± 7.2	10.9 ± 11.2			
Cc1cc(O)c(=O)c(O)cc1C(=O)NC(CCC(=O)O)C(=O)O (centres unmarked) [compound 868]	50 (≈ 16.3 µg/mL)	27.7 ± 20.3	100	100	-0.15	0.0414
CCS(=O)(=O)N1CCN(C(=O)c2cc(O)c(=O)c(O)cc2C)CC1 [compound 802]	50 (≈ 17.8 µg/mL)	76.5 ± 46.9	27.1 ± 31.2			
CCCCNC(=O)c1cc(O)c(=O)c(O)cc1C [compound 1039]	12 (≈ 3.02 µg/mL)	219 ± 87.6	8.7 ± 2.8			
Cc1cc(O)c(=O)c(O)cc1C(=O)N1CCN(S(=O)(=O)c2ccsc2)CC1 [compound 917]	50 (≈ 20.5 µg/mL)	30.7 ± 15.8	8.9 ± 4.1			
Cc1cc(O)c(=O)c(O)cc1C(=O)NCc1cccs1 [compound 801]	50 (≈ 14.6 µg/mL)	833 ± 289	61.1 ± 22.8			
Cc1cc(O)c(=O)c(O)cc1C(=O)N1CCN(c2oc(-c3ccco3)nc2C#N)CC1 [compound 803]	32 (≈ 13.5 µg/mL)	36.3 ± 4	23.7 ± 22.9			
Cc1cc(O)c(=O)c(O)cc1C(=O)N1CCN(C(=O)N(c2ccccc2)c2ccccc2)CC1 [compound 1020]	8 (≈ 3.68 µg/mL)	12.9 ± 7.3	7.8 ± 3.7			
COc1ccc(C(=O)N2CCN(C(=O)c3cc(O)c(=O)c(O)cc3C)CC2)cc1 [compound 877]	14 (≈ 5.58 µg/mL)	34.9 ± 7.2	16.5 ± 1.4		-0.232	0.175
COC(=O)[C@H](Cc1ccccc1)NC(=O)c1cc(O)c(=O)c(O)cc1C [compound 795]	9 (≈ 3.22 µg/mL)	43.5 ± 14.8	12.7 ± 5.5			
Cc1cc(O)c(=O)c(O)cc1C(=O)N1CCN(C(=O)OC(C)(C)C)CC1 [compound 873]	20 (≈ 7.29 µg/mL)	74.7 ± 23.1	19.5 ± 8.7		-0.148	0.2
Cc1cc(O)c(=O)c(O)cc1C(=O)NCCCc1ccccc1 [compound 708]	18 (≈ 5.64 µg/mL)	267 ± 11.7	22.6 ± 12.8			0.04
Cc1cc(O)c(=O)c(O)cc1C(=O)NC(CC(C)C)C(=O)OC(C)(C)C (centres unmarked) [compound 870]	5 (≈ 1.83 µg/mL)	289 ± 296	9.1 ± 2.7			0.811
Cc1cc(O)c(=O)c(O)cc1C(=O)Nc1ccccc1 [compound 389]	5.3 (≈ 1.44 µg/mL)	78.4 ± 47.2	21.2 ± 9.5	> 20		0.43
Cc1cc(O)c(=O)c(O)cc1C(=O)N1CCS(=O)(=O)C1 [compound 709]	50 (≈ 15 µg/mL)	84.8 ± 6.7	19.5 ± 6.7			-0.27
Cc1cc(O)c(=O)c(O)cc1C(=O)N1CCN(c2ccc(C(F)(F)F)cc2)CC1 [compound 919]	2.5 (≈ 1.02 µg/mL)		5.5 ± 1.9			
Cc1cc(O)c(=O)c(O)cc1C(=O)NCC1CCN(C(=O)OC(C)(C)C)CC1 [compound 805]	9 (≈ 3.53 µg/mL)	77 ± 30.8	19.5 ± 10.8			
COc1ccc(CNC(=O)c2cc(O)c(=O)c(O)cc2C)cc1 [compound 806]	4.6 (≈ 1.45 µg/mL)	61.4 ± 15.9	15.9 ± 6.9			
